# Measurements from US20120027816A1, “HIGHLY PURE ELETRIPTAN OR A PHARMACEUTICALLY ACCEPTABLE SALT THEREOF SUBSTANTIALLY FREE OF ELETRIPTAN N-OXIDE IMPURITY” (ACTAVIS GROUP PTC EHF, priority 2009, published 2012).
# Counter-ions that a name gives are not always drawn.
# Test: Particle Size Distribution by laser diffraction (Malvern Master Sizer 2000)
# Assay type: physicochemical
# Details: eletriptan hydrobromide obtained by the Example 4 procedure, unmilled, cumulative volume size distribution
# Experimental: As used herein, “Particle Size Distribution (PSD)” means the cumulative volume size distribution of equivalent spherical diameters as determined by laser diffraction in Malvern Master Sizer 2000 equipment or its equivalent using a particle size method containing Tegiloxan medium with sonication time of 10 seconds and stirrer speed of 2500 rpm. “Mean particle size distribution, i.e., (D50)” correspondingly, means the median of said particle size distribution. The important characteristics of the PSD are the (D90), which is the size, in microns, below which 90% of the particles by volume are found, and the (D50), which is the size, in microns, below which 50% of the particles by volume are found. Thus, a D90 or d(0.9) of less than 300 microns means that 90 volume-percent of the particles in a composition have a diameter less than 300 microns.
Particle Size Distribution d(0.1),Particle Size Distribution d(0.5),Particle Size Distribution d(0.9),Compound
12.07 microns,27.69 microns,53.92 microns,"CN1CCC[C@@H]1Cc1c[nH]c2ccc(CCS(=O)(=O)c3ccccc3)cc12 [Example 4A, eletriptan hydrobromide]"
9.99 microns,20.85 microns,42.83 microns,"CN1CCC[C@@H]1Cc1c[nH]c2ccc(CCS(=O)(=O)c3ccccc3)cc12 [Example 4B, eletriptan hydrobromide]"
13.58 microns,27.25 microns,50.91 microns,"CN1CCC[C@@H]1Cc1c[nH]c2ccc(CCS(=O)(=O)c3ccccc3)cc12 [Example 4C, eletriptan hydrobromide]"
